Data from article PMC5843908, “Detection of PRMT1 inhibitors with stopped flow fluorescence” (Signal Transduction and Targeted Therapy, 2018).

Columns and labels:
PRMT1 [1] = system: PRMT1; set-up: method as in earlier work; conditions: binary binding to PRMT1; ref 2 (supplement; Feng et al. 2011); cited from earlier work
PRMT1 [2] = conditions: PRMT1 catalysis, cited from earlier work
PRMT1 [3] = biological target: PRMT1 (Homo sapiens, UniProt Q99873); assay: Stopped flow fluorescence assay of PRMT1 inhibition ([PRMT1] 0.2 µM, [SAM] 3.5 µM, [H4FL] 0.4 µM); type: biochemical;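 note: Stopped-flow traces of fluorescent H4FL peptide quenched on binding PRMT1 and restored on release, recorded 900 s, averaged over repeated drives and fit to a double-exponential model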
PRMT1 (Homo sapiens, UniProt Q99873), sequence (Q99873 29-371): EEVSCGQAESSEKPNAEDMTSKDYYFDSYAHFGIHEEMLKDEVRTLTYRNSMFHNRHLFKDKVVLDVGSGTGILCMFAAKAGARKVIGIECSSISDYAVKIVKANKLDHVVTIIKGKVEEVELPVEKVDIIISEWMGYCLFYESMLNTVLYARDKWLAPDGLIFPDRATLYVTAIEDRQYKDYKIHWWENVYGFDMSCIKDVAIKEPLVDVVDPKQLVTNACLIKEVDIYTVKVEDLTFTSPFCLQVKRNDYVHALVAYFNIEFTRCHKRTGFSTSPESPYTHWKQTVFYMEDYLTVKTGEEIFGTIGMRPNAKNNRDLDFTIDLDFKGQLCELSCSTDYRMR
Excerpt: To obtain the IC50 of a specific inhibitor, the relative activities of the enzyme in presence of different concentrations of the inhibitor are required (equation 1).[37] […] By adding different concentrations of the inhibitor to the reaction mixture, the relative activity of the enzyme can be obtained by normalizing K to the reaction rate without the inhibitor, and then calculate the IC50 value using equation 1. In our stopped flow fluorescence assay, the reaction rate of Phase I and Phase II can be obtained by approximating and deriving the double-exponential equation (equation 2). In Phase I, during a very short period of time (where t is small), the curve is nearly linear, and the exponential equation can be approximately described as F1 = a · (−k1) · t. Therefore, the derivation of F1 equals –k1∙a, which is the slope of Phase I. Similarly, the curve of Phase II at early stage can be approximately described as F2 = b · (−k2) · t. This derivation of F2 equals –k2∙b, which is the slope of Phase II. The slopes at various inhibitor concentrations, normalized to the slope in the absence of inhibitor, can be used to obtain the corresponding relative enzyme activity from which the potency value (IC50) of the inhibitor can be calculated with equation 1.
In a stopped flow fluorescence assay, the binding of H4FL to PRMT1 (or the PRMT1—cofactor complex) quenches the peptide fluorescence, while release of the peptide restores the fluorescence. […] The widths of the entrance and exit slits of the monochromator were set to 0.5 mm. An equal volume of samples from two syringes was driven into the observation cell for mixing measurements. The H4FL concentration in all experiments was 0.4 μM. […] The fluorescent signal was recorded for 900 seconds, with 10,000 data points in total. Data from four to six drives were collected and averaged for each curve.
After averaging the shot data, the association time courses were fitted to a double-exponential function (equation 2) using GraphPad Prism (CA, USA). […] F is the fluorescence intensity at time t, k1, and k2 are the rate constants for Phase I and Phase II, a is the amplitude of the fluorescence change for k1, and b is the amplitude of the fluorescence change for k2. Simulation curves based on the values of a, b, k1, and k2 at fixed c = 1 were produced using Matlab. The IC50 value of inhibitors is determined by equation 1 using GraphPad Prism (CA, USA).

acetyl -SGRme2aGKGGKGK(FL)GKGGAKRHRK [H4FLme2]
koff (PRMT1 [1]): 319 s⁻¹
kon (PRMT1 [1]): 2.6e+07 M⁻¹ s⁻¹

acetyl-SGRGKGGKGK(FL)GKGGAKRHRK [H4FL]
koff (PRMT1 [1]): 333 s⁻¹
kon (PRMT1 [1]): 4e+07 M⁻¹ s⁻¹
kcat (PRMT1 [2]): 0.00717 ± 0.00017 s⁻¹
Km (PRMT1 [2]; read-out: Km of peptide substrate): 0.5 ± 0.05 µM

acetyl-SGRme2aGKGGKGLGKGGAKRHRKVL [H4R3me2a]
-b·k2 (slope of Phase II) (PRMT1 [3]; [H4R3Me2a] 0.025 µM): 0.000708 ± 1.5e-06 s⁻¹
a (amplitude, Phase I) (PRMT1 [3]; [H4R3Me2a] 0.025 µM): 0.1544 ± 3.91E-04
a·k1 (slope of Phase I) (PRMT1 [3]; [H4R3Me2a] 0.025 µM): 0.0108 ± 5.74e-05 s⁻¹
b (amplitude, Phase II) (PRMT1 [3]; [H4R3Me2a] 0.025 µM): -0.1795 ± 1.47E-04
k1 (rate constant, Phase I) (PRMT1 [3]; [H4R3Me2a] 0.025 µM): 0.06982 ± 3.27E-04 s^-1
k2 (rate constant, Phase II) (PRMT1 [3]; [H4R3Me2a] 0.025 µM): 0.003946 ± 7.72E-06 s^-1
-b·k2 (slope of Phase II) (PRMT1 [3]; [H4R3Me2a] 0.05 µM): 0.00064 ± 1.51e-06 s⁻¹
a (amplitude, Phase I) (PRMT1 [3]; [H4R3Me2a] 0.05 µM): 0.1589 ± 4.16E-04
a·k1 (slope of Phase I) (PRMT1 [3]; [H4R3Me2a] 0.05 µM): 0.0106 ± 5.8e-05 s⁻¹
b (amplitude, Phase II) (PRMT1 [3]; [H4R3Me2a] 0.05 µM): -0.1863 ± 1.43E-04
k1 (rate constant, Phase I) (PRMT1 [3]; [H4R3Me2a] 0.05 µM): 0.06665 ± 3.21E-04 s^-1
k2 (rate constant, Phase II) (PRMT1 [3]; [H4R3Me2a] 0.05 µM): 0.003437 ± 7.65E-06 s^-1
-b·k2 (slope of Phase II) (PRMT1 [3]; [H4R3Me2a] 0.1 µM): 0.000608 ± 1.59e-06 s⁻¹
a (amplitude, Phase I) (PRMT1 [3]; [H4R3Me2a] 0.1 µM): 0.1731 ± 3.91E-04
a·k1 (slope of Phase I) (PRMT1 [3]; [H4R3Me2a] 0.1 µM): 0.00927 ± 4.52e-05 s⁻¹
b (amplitude, Phase II) (PRMT1 [3]; [H4R3Me2a] 0.1 µM): -0.1960 ± 1.50E-04
k1 (rate constant, Phase I) (PRMT1 [3]; [H4R3Me2a] 0.1 µM): 0.05356 ± 2.31E-04 s^-1
k2 (rate constant, Phase II) (PRMT1 [3]; [H4R3Me2a] 0.1 µM): 0.003104 ± 7.73E-06 s^-1
-b·k2 (slope of Phase II) (PRMT1 [3]; [H4R3Me2a] 0.25 µM): 0.000613 ± 1.75e-06 s⁻¹
a (amplitude, Phase I) (PRMT1 [3]; [H4R3Me2a] 0.25 µM): 0.1692 ± 4.25E-04
a·k1 (slope of Phase I) (PRMT1 [3]; [H4R3Me2a] 0.25 µM): 0.00914 ± 4.96e-05 s⁻¹
b (amplitude, Phase II) (PRMT1 [3]; [H4R3Me2a] 0.25 µM): -0.1883 ± 1.69E-04
k1 (rate constant, Phase I) (PRMT1 [3]; [H4R3Me2a] 0.25 µM): 0.054 ± 2.60E-04 s^-1
k2 (rate constant, Phase II) (PRMT1 [3]; [H4R3Me2a] 0.25 µM): 0.003253 ± 8.83E-06 s^-1
-b·k2 (slope of Phase II) (PRMT1 [3]; [H4R3Me2a] 0.5 µM): 0.000482 ± 2.06e-06 s⁻¹
a (amplitude, Phase I) (PRMT1 [3]; [H4R3Me2a] 0.5 µM): 0.1282 ± 4.32E-04
a·k1 (slope of Phase I) (PRMT1 [3]; [H4R3Me2a] 0.5 µM): 0.00584 ± 4.38e-05 s⁻¹
b (amplitude, Phase II) (PRMT1 [3]; [H4R3Me2a] 0.5 µM): -0.1431 ± 2.10E-04
k1 (rate constant, Phase I) (PRMT1 [3]; [H4R3Me2a] 0.5 µM): 0.04557 ± 3.06E-04 s^-1
k2 (rate constant, Phase II) (PRMT1 [3]; [H4R3Me2a] 0.5 µM): 0.00337 ± 1.35E-05 s^-1
-b·k2 (slope of Phase II) (PRMT1 [3]; [H4R3Me2a] 1 µM): 0.000195 ± 1.96e-06 s⁻¹
a (amplitude, Phase I) (PRMT1 [3]; [H4R3Me2a] 1 µM): 0.1156 ± 3.30E-04
a·k1 (slope of Phase I) (PRMT1 [3]; [H4R3Me2a] 1 µM): 0.0041 ± 2.6e-05 s⁻¹
b (amplitude, Phase II) (PRMT1 [3]; [H4R3Me2a] 1 µM): -0.1396 ± 5.20E-04
k1 (rate constant, Phase I) (PRMT1 [3]; [H4R3Me2a] 1 µM): 0.0355 ± 2.01E-04 s^-1
k2 (rate constant, Phase II) (PRMT1 [3]; [H4R3Me2a] 1 µM): 0.001394 ± 1.31E-05 s^-1
-b·k2 (slope of Phase II) (PRMT1 [3]; [H4R3Me2a] 2 µM): 0.000103 ± 2.25e-06 s⁻¹
a (amplitude, Phase I) (PRMT1 [3]; [H4R3Me2a] 2 µM): 0.0723 ± 3.03E-04
a·k1 (slope of Phase I) (PRMT1 [3]; [H4R3Me2a] 2 µM): 0.00179 ± 1.72e-05 s⁻¹
b (amplitude, Phase II) (PRMT1 [3]; [H4R3Me2a] 2 µM): -0.07524 ± 5.65E-04
k1 (rate constant, Phase I) (PRMT1 [3]; [H4R3Me2a] 2 µM): 0.02475 ± 2.15E-04 s^-1
k2 (rate constant, Phase II) (PRMT1 [3]; [H4R3Me2a] 2 µM): 0.001365 ± 2.82E-05 s^-1

acetyl-SGRmeGKGGKGK(FL)GKGGAKRHRK [H4FLme1]
koff (PRMT1 [1]): 292 s⁻¹
kon (PRMT1 [1]): 2.3e+07 M⁻¹ s⁻¹
